Active and inactive are the calls of the source. No cut-off for these calls is given here.
Columns and labels:
Sindbis virus = assay: Antiviral activity against Sindbis virus at 100 uM; format: functional, organism-based
CCRF-CEM = assay: Cytostatic activity against human CEM cells after 72 hrs by Coulter counter method; format: functional, cell-based
Human betaherpesvirus 5 [1] = assay: Antiviral activity against Human cytomegalovirus AD169 at 100 uM; format: functional, organism-based
Influenza A virus [2] = assay: Antiviral activity against Influenza virus A H3N2 at 100 uM; format: functional, organism-based
[3] = test system: Human immunodeficiency virus 1; assay: Antiviral activity against HIV1 3B infected in human MT4 cells at 100 uM preincubated with cells for 30 mins followed by HIV inoculation measured after 4 to 5 days by microscopic analysis; format: functional, organism-based
Coxsackievirus B4 = assay: Antiviral activity against Coxsackie B4 virus at 100 uM; format: functional, organism-based
Human respirovirus 3 = assay: Antiviral activity against parainfluenza virus 3 at 100 uM; format: functional, organism-based
[4] = test system: Vesicular stomatitis virus; assay: Antiviral activity against VSV at 100 uM; format: functional, organism-based
Punta Toro virus = assay: Antiviral activity against Punta Toro virus at 100 uM; format: functional, organism-based
L1210 = assay: Cytostatic activity against mouse L1210 cells after 48 hrs by Coulter counter method; format: functional, cell-based; settings: L1210, 48 h
Human alphaherpesvirus 1 [5] = assay: Antiviral activity against HSV-1 KOS at 100 uM; format: functional, organism-based
Human alphaherpesvirus 2 [6] = assay: Antiviral activity against HSV-2 lyons at 100 uM; format: functional, organism-based
Influenza A virus [7] = assay: Antiviral activity against Influenza virus A H1N1 at 100 uM; format: functional, organism-based
Influenza B virus = assay: Antiviral activity against Influenza virus B at 100 uM; format: functional, organism-based
[8] = test system: Human immunodeficiency virus 2; assay: Antiviral activity against HIV2 ROD infected in human MT4 cells at 100 uM preincubated with cells for 30 mins followed by HIV inoculation measured after 4 to 5 days by microscopic analysis; format: functional, organism-based; settings: ISOLATE ROD
[9] = test system: Mammalian orthoreovirus 1; assay: Antiviral activity against Reovirus 1 at 100 uM; format: functional
[10] = test system: Human immunodeficiency virus 1; assay: Antiviral activity against HIV 1 NL4-3 infected in human MT4 cells at 100 uM preincubated with cells for 30 mins followed by HIV inoculation measured after 4 to 5 days by microscopic analysis; format: functional, organism-based
[11] = test system: Respiratory syncytial virus; assay: Antiviral activity against Respiratory syncytial virus long at 100 uM; format: functional, organism-based
Human alphaherpesvirus 2 [12] = assay: Antiviral activity against HSV-2 G at 100 uM; format: functional, organism-based; settings: strain G
Human adenovirus 2 = assay: Antiviral activity against Adenovirus 2 at 100 uM; format: functional, organism-based
Human alphaherpesvirus 1 [13] = assay: Antiviral activity against Aciclovir-resistant thymidine kinase-deficient HSV-1 KOS at 100 uM; format: functional, organism-based
HeLa = assay: Cytostatic activity against human HeLa cells after 72 hrs by Coulter counter method; format: functional, cell-based
Human betaherpesvirus 5 [14] = assay: Antiviral activity against Human cytomegalovirus Davis at 100 uM; format: functional, organism-based
Vaccinia virus = assay: Antiviral activity against Vaccinia virus Lederle; format: functional, organism-based; settings: Orthopoxvirus vaccinia
[15] = target: Adenosine receptor A3 (Homo sapiens) (UniProt P0DMS8); assay: Agonist activity at adenosine A3 receptor (unknown origin) assessed as inhibition of forskolin-stimulated adenylyl cyclase activity at 10 uM; format: functional
Adenosine receptor A3 (Homo sapiens), sequence (P0DMS8 whole entry): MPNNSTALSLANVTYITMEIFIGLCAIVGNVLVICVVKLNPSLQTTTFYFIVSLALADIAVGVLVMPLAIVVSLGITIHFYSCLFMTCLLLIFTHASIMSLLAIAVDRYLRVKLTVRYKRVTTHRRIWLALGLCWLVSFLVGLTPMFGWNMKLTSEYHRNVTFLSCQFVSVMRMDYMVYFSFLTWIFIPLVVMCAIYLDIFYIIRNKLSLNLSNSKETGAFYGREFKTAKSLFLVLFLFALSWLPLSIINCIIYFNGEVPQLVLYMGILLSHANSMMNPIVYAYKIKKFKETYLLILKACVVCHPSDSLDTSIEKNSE

Human alphaherpesvirus 3 [16] = assay: Antiviral activity against thymidine kinase deficient VZV 07-1; format: functional, organism-based; settings: Human alphaherpesvirus 3, 07-1
Human alphaherpesvirus 3 [17] = assay: Antiviral activity against VZV Oka; format: functional, organism-based; settings: Human alphaherpesvirus 3, strain Oka vaccine

Row | SMILES | Activity (Sindbis virus) | IC50 (CCRF-CEM) | Activity (Human betaherpesvirus 5 [1]) | Activity (Influenza A virus [2]) | Activity [3] | Activity (Coxsackievirus B4) | Activity (Human respirovirus 3) | Activity [4] | Activity (Punta Toro virus) | IC50 (L1210) | Activity (Human alphaherpesvirus 1 [5]) | Activity (Human alphaherpesvirus 2 [6]) | Activity (Influenza A virus [7]) | Activity (Influenza B virus) | Activity [8] | Activity [9] | Activity [10] | Activity [11] | Activity (Human alphaherpesvirus 2 [12]) | Activity (Human adenovirus 2) | other results
1 | C#C[C@@]1(O)[C@@H](CO)O[C@@H](n2cnc3c(OC)nc(N)nc32)[C@@H]1O | inactive | > 250 µM | inactive | inactive | inactive | inactive | inactive | inactive | inactive | > 250 µM | inactive | inactive | inactive | inactive | inactive | inactive | inactive | inactive | inactive | inactive | Activity (Human alphaherpesvirus 1 [13]): inactive; IC50 (HeLa): > 250 µM; Activity (Human betaherpesvirus 5 [14]): inactive
2 | C#C[C@@]1(O)[C@@H](CO)O[C@@H](n2cnc3c(N)ncnc32)[C@@H]1O | inactive | 0.61 µM | inactive | inactive | inactive | inactive | inactive | inactive | inactive | 0.73 µM | inactive | inactive | inactive | inactive | inactive | inactive | inactive | inactive | inactive | inactive | EC50 (Vaccinia virus): 0.35 µM; Activity (Human alphaherpesvirus 1 [13]): inactive; IC50 (HeLa): 0.29 µM; Activity (Human betaherpesvirus 5 [14]): inactive
3 | C#C[C@@]1(O)[C@@H](CO)O[C@@H](n2cnc3c(OC)nc(OC)nc32)[C@@H]1O | inactive | > 250 µM | inactive | inactive | inactive | inactive | inactive | inactive | inactive | > 250 µM | inactive | inactive | inactive | inactive | inactive | inactive | inactive | inactive | inactive | inactive | Activity (Human alphaherpesvirus 1 [13]): inactive; IC50 (HeLa): > 250 µM; Activity (Human betaherpesvirus 5 [14]): inactive
4 | C#C[C@@]1(O)[C@@H](CO)O[C@@H](n2cnc3c(OC)nc(Cl)nc32)[C@@H]1O | inactive | 210 µM | inactive | inactive | inactive | inactive | inactive | inactive | inactive | > 250 µM | inactive | inactive | inactive | inactive | inactive | inactive | inactive | inactive | inactive | inactive | Activity (Human alphaherpesvirus 1 [13]): inactive; IC50 (HeLa): 175 µM; Activity (Human betaherpesvirus 5 [14]): inactive
5 | C#C[C@@]1(O)[C@@H](CO)O[C@@H](n2cnc3c(NC4CCCC4)nc(Cl)nc32)[C@@H]1O | inactive | 104 µM | inactive | inactive | inactive | inactive | inactive | inactive | inactive | 170 µM | inactive | inactive | inactive | inactive | inactive | inactive | inactive | inactive | inactive | inactive | Activity (Human alphaherpesvirus 1 [13]): inactive; inhibition [15]: 70%; IC50 (HeLa): 150 µM; Activity (Human betaherpesvirus 5 [14]): inactive
6 | C#C[C@@]1(O)[C@@H](CO)O[C@@H](n2cnc3c(N)nc(Cl)nc32)[C@@H]1O | inactive | > 250 µM | inactive | inactive | inactive | inactive | inactive | inactive | inactive | 167 µM | inactive | inactive | inactive | inactive | inactive | inactive | inactive | inactive | inactive | inactive | Activity (Human alphaherpesvirus 1 [13]): inactive; IC50 (HeLa): > 250 µM; Activity (Human betaherpesvirus 5 [14]): inactive
7 | C#C[C@@]1(O)[C@@H](CO)O[C@@H](n2cnc3c(N)nc(N)nc32)[C@@H]1O | inactive | ≥ 250 µM | inactive | inactive | inactive | inactive | inactive | inactive | inactive | 193 µM | inactive | inactive | inactive | inactive | inactive | inactive | inactive | inactive | inactive | inactive | Activity (Human alphaherpesvirus 1 [13]): inactive; IC50 (HeLa): 123 µM; Activity (Human betaherpesvirus 5 [14]): inactive
8 | C#C[C@@]1(O)[C@@H](CO)O[C@@H](n2cnc3c(NCc4cccc(Cl)c4)nc(Cl)nc32)[C@@H]1O | inactive | 22 µM | inactive | inactive | inactive | inactive | inactive | inactive | inactive | 50 µM | inactive | inactive | inactive | inactive | inactive | inactive | inactive | inactive | inactive | inactive | EC50 (Human alphaherpesvirus 3 [16]): 4.68 µM; EC50 (Human alphaherpesvirus 3 [17]): 4.68 µM; Activity (Human alphaherpesvirus 1 [13]): inactive; inhibition [15]: 48%; IC50 (HeLa): 43 µM; Activity (Human betaherpesvirus 5 [14]): inactive
9 | C#C[C@@]1(O)[C@@H](CO)O[C@@H](n2cnc3c(Cl)nc(N)nc32)[C@@H]1O | inactive | > 250 µM | inactive | inactive | inactive | inactive | inactive | inactive | inactive | > 250 µM | inactive | inactive | inactive | inactive | inactive | inactive | inactive | inactive | inactive | inactive | EC50 (Vaccinia virus): 51 µM; Activity (Human alphaherpesvirus 1 [13]): inactive; IC50 (HeLa): > 250 µM; Activity (Human betaherpesvirus 5 [14]): inactive
